Measurements from patent US10716783B2, “Prolylhydroxylase/ATF4 inhibitors and methods of use for treating neural cell injury or death and conditions resulting therefrom” (CORNELL UNIVERSITY, priority 2013, dated 2020).
“Also recorded” adds a separate entry of the source.

Tests used:
[1] = test system: ATF4; experiment: ATF4 hydroxylation (ATF4 immunoprecipitation, hydroxyproline immunoblot); format: cell-based
[2] = test system: primary cortical neurons; experiment: Oxidative glutamate (homocysteate) toxicity in cortical neurons; format: cell-based, rat
Excerpt: FIGS. 5A-5G. […] Because adaptoquin is a HIF PHD inhibitor that appears to work independent of HIF transcription factors, and because hemin induced death involves oxidative stress, the effect of adaptoquin on oxidative glutamate toxicity was examined. This form of toxicity is observed in primary cortical neurons from E17 rat embryos (2 DIV) and involves glutamate mediated inhibition of the amino acid cystine via its plasma membrane transporter. […] Accordingly, the optimal concentration of adaptoquin in protecting neurons was first determined and found to be about 1 micromolar. […] To determine the mechanism of adaptoquin, transcriptomic experiments were performed using non-protective and protective concentrations of drug harvesting RNA just prior to the time the cell's becoming insensitive to adaptoquin (16 hrs), as provided in FIG. 5C.
To probe the mechanism of adaptoquin-induced neuroprotection, the study moved its attention to a well established model of oxidative stress in neurons induced by glutamate. Like hemin induced toxicity, oxidative glutamate toxicity is abrogated by forced expression of GPX4 (Alim et al., unpublished observations). However, oxidative glutamate toxicity has a much longer window before cells are committed to die (eighteen hours), facilitating analysis of primary events involved in cell death and protection. A detailed dose response and therapeutic window study was performed with adaptoquin in mouse cortical neurons exposed to glutamate or the glutamate analog, homocysteate. […] To probe the mechanism of this potent, delayed protection, a microarray transcriptomics study was performed using RNA from neuronal cultures that had been exposed to glutamate (or HCA) for 16 hours with vehicle, as well as non-protective (100 nM) and protective doses of adaptoquin (1 μM). Protective, but […] doses of adaptoquin reduced expression of a host of genes induced by oxidative stress including Tribbles homolog 3, methylene tetrahydrofolate reductase, the Xc-transporter, and stanniocalcin-2 hormone glycoprotein.

[3] = test system: immortalized hippocampal neuroblasts (HT22 cells); experiment: Hemin-induced toxicity in hippocampal neuroblasts (MTT); format: cell-based
Excerpt: FIGS. 1A-1L: Structurally diverse HIF PHD inhibitors stabilize HIF-1 and abrogate toxicity induced by hemin, a byproduct of blood breakdown, in cortical neurons hippocampal neuroblasts and striatal neuroblasts (not shown).
Secondary injury from ICH has been attributed to hemin, a breakdown product of hemoglobin (from lysed red blood cells). To investigate the mechanisms of hemin toxicity to neurons in vitro, this experiment exposed primary cortical neurons, immortalized hippocampal neuroblasts (HT22 cells), and immortalized striatal neuroblasts (Q7 cells) to hemin for 24 hours. As expected, a dose dependent loss in viability as measured by MTT reduction or LIVE/DEAD assay in all three cell types was observed. […] To examine whether iron-dependent HIF PHD enzymes can be modulated to protect neurons from hemin-induced toxicity, this experiment examined structurally diverse inhibitors of the HIF PHDs: desferoxamine, cyclopirox, and dihydroxybenzoic acid. […] To test this notion further using a chemical biological approach, the protective effects of cyclopirox, a HIF PHD inhibitor, and a cyclopirox analog with no PHD inhibitory activity but with similar metal binding affinity to cyclopirox were compared. As expected, only the cyclopirox analog with PHD inhibitory activity was neuroprotective. […]

[4] = test system: intracerebral hemorrhage (autologous blood infusion); experiment: Autologous blood infusion ICH in rats; format: in vivo
Protocol: FIGS. 4A-4N. Adaptoquin delivered post-injury reduces cell death and enhances functional recovery post injury in mice and rats. Adaptoquin's effects in mice are not associated with global shifts of iron out of the brain. FIG. 4A: Experimental design for schedule of delivery of adaptaquin post-ICH. 30 mg/kg was delivered post-injury and then daily for seven days during which behavioral analysis was done. Mice were sacrificed at day 7 for qPCR and Fluoro-jade staining. […] FIG. 4J: Protocol for adaptoquin treatment of rats with ICH. ICH is modeled by autologous blood infusion and not collagenase in these studies. Behavior is tracked by a single pellet reaching task out to 28 days, but the schedule of infusion is similar to what is used in mice-2 hrs post blood infusion and then daily out to seven days. Behavior is monitored before, from 9-11 days and from 25-28 days. […] FIG. 4L: Protocol for evaluating the total concentrations of iron and zinc in brain following ICH in vehicle and adaptoquin treated mice. FIGS. 4M, 4N: Pseudocolored sections of collagenase induced ICH in mice after 7 days. […] These studies are consistent with the notion that adaptoquin works by inhibiting a specific metalloenzyme rather than global movement of metal ions.
To determine whether adaptoquin could ameliorate outcomes using a distinct model of ICH in a distinct species, adaptoquin was tested it (30 mg/kg, intraperitoneal) in a model of autologous blood infusion in rats. Autologous blood infusion causes a narrower slit like lesion in the striatum than collagenase, but results in motor impairments out beyond 30 days. Adaptoquin (30 mg/kg) was administered two hours after autologous blood infusion and then daily for seven days.

Oc1cccnc1NC(c1ccc(Cl)cc1)c1ccc2cccnc2c1O (centres unmarked) [adaptoquin]
ATF4 hydroxylation [1]: inhibits ATF4 hydroxylation | Protection against oxidative death ([2]; 0.1 micromolar (100 nM)): non-protective | Protection against oxidative death ([2]; 1 micromolar): complete protection | Time after glutamate/homocysteate treatment at which the compound can still be added and protect ([2]; 1 micromolar): up to 16 hours | Protection against oxidative death ([2]; 1 micromolar, listed as adaptaquin): protection is significant | Optimal concentration in protecting neurons ([2]; oxidative glutamate toxicity): about 1 micromolar | Hemin-induced death / protection after HIF-1α or HIF-2α reduction (shRNA) [3]: prevents hemin induced death independent of HIF-1 and HIF-2 | Body weight ([4]; 30 mg/kg i.p.): no significant changes | Glucose levels ([4]; 30 mg/kg i.p.): no significant changes | Temperature ([4]; 30 mg/kg i.p.): no significant changes | Single pellet reaching task (percent correct) ([4]; 30 mg/kg i.p. 2 h after blood infusion then daily for seven days, later time points): significant improvements in percent correct; also recorded: improves single pellet reaching
